Positions of bridges follow the written chain, without caps; N, C: chain ends. Non-standard residues stand in square brackets, D forms with d. No end group written: not given here. *: point of attachment. prenyl = prenyl group added to Trp by KgpF, CC(C)=CC*
Columns and labels:
KgpF = test: Prenylation of artificial cyclic peptides with 160 μM KgpF at 0° C., 20 hours (Conditions 13/14 and 19/20; Examples 10, 14, 19; Tables 6 and 18); format: biochemical, Microcystis aeruginosa; design: key: 5: strong intensity; 4: medium intensity; 3: weak intensity; 2: very weak intensity; 1: no peak; N/A: not observed; details: for MALDI-TOF-MS peak intensity, Number of additions 1 / MALDI-TOF-MS peak intensity, Number of additions 2 / MALDI-TOF-MS peak intensity, Number of additions 0 / MALDI-TOF-MS peak intensity, Number of additions 3: Table 6, 160 μM KgpF, 2 mM DMAPP, 0° C., 20 hours; for MALDI-TOF-MS peak intensity, Number of additions 1: 1 prenyl added; for MALDI-TOF-MS peak intensity, Number of additions 2: 2 prenyl added; for MALDI-TOF-MS peak intensity, Number of additions 0: unmodified peptide peak; for MALDI-TOF-MS peak intensity, Number of additions 3: 3 prenyl added
Sequence of KgpF (as listed by the source): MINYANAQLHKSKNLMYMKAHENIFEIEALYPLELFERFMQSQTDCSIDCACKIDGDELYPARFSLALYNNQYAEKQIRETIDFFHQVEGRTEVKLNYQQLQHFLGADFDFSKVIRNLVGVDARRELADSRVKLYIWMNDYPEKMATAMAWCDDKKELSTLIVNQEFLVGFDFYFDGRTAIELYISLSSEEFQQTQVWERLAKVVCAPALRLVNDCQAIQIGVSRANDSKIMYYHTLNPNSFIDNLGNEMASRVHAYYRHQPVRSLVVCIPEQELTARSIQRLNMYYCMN
Description: The artificial cyclic peptides Clone-M1 to M9 shown below were obtained by translation and synthesis in the artificial translation system (Conditions 13) developed by the present inventors. The peptides thus obtained were then reacted with 160 μM KgpF in the system shown in (Conditions 14) at 0° C. for 20 hours.
(Conditions 13) • FIT system: v8s/v11.0 • 19aa-Met: 0.5 mM • ClAc-D-Tyr-tRNA^fMetCUA: 90 μM • Reaction: 37° C., 60 min. • Scale: 2.5 μL scale
After the above reaction was performed, the reaction product was incubated at 25° C. for 12 minutes.
Then, a cyclization reaction was performed under the following conditions. • Translated mixture amount: 2.5 μL (mixture obtained by the above reaction) • EDTA: 18 mM • Reaction: 42° C., 60 min. • Scale: 2.75 μL scale
(Conditions 14) • Translated mixture amount: 2.75 μL (mixture obtained under (Conditions 13)) • KOH: 6.0 mM • Mg(OAc)2: 9.0 mM • Tris-HCl (pH 8.3) 15 mM • KgpF: 160 μM • DMAPP: 2 mM • Reaction: 0° C., 20 hours
The artificial cyclic peptides shown below were obtained by translation and synthesis in the artificial translation system (Conditions 19) developed by the present inventors. The peptides thus obtained were then reacted with 160 μM KgpF in the system shown in (Conditions 20) at 0° C. for 20 hours.
(Conditions 19) • FIT system: v8s/11.0 • 19aa-Met: 0.5 mM • ClAc-D-Tyr-tRNA^fMetCUA: 90 μM • Reaction: 37° C., 60 min. • Scale: 2.5 μL scale
(Conditions 20) • Translated mixture amount: 2.75 μL (mixture obtained under (Conditions 19)) • KOH: 6.0 mM • Mg(OAc)2: 9.0 mM • Tris-HCl (pH 8.3): 15 mM • KgpF: 160 μM • DMAPP: 2 mM • Reaction: 0° C., 20 hours
Then, the compound library was provided for a step of screening cyclic peptides having interaction with an enzyme MetAP1 (Human) as in the scheme shown in FIG. 8. It has been confirmed that with regards to some of the peptides shown in FIG. 10, peptides having these sequences are modified by prenylation as shown in Table 18 by bringing them into contact with KgpF under conditions shown in (Conditions 13) and (Conditions 14).

OltF v 2.1 = test: Modification test of thioether-closed artificial cyclic peptides with 9.13 μM OltF v 2.1 (Example 16; Tables 11 and 12); format: biochemical, Planktothrix; design: key: 5: strong intensity; 4: medium intensity; 3: weak intensity; 2: very weak intensity; 1: no peak; N/A: not observed; details: OltF v 2.1 9.13 μM, DMAPP 2 mM, 37° C., 18 hours
Sequence of OltF v 2.1 (as listed by the source): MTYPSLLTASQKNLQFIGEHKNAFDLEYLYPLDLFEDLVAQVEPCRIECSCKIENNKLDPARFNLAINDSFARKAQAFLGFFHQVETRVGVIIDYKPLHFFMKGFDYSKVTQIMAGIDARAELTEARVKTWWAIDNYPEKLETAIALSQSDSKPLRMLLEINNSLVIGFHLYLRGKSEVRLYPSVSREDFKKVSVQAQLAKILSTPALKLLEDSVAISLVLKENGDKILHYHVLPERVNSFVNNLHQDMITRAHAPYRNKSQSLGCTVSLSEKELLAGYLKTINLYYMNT
Description: The artificial cyclic peptides shown in Table 11 and Table 12 were obtained by translation and synthesis in the artificial translation system (Conditions 23) developed by the present inventors. The peptides thus obtained were then reacted with 9.13 μM OltF in the system shown in (Conditions 24) at 37° C. for 18 hours. It is to be noted that OltF v 2.1 is an enzyme prepared from OltF used in (Conditions 22) while changing a purification manner.
(Conditions 23) • FIT system: v8s/v11.1 • 19aa-Met: 0.5 mM • ClAc-D or L-Tyr-tRNA^fMetCUA: 90 μM • Reaction: 37° C., 60 min. • Scale: 2.5 μL scale
(Conditions 24) • Translated mixture amount: 2.5 μL (mixture obtained under (Conditions 23)) • OltF v 2.1: 9.13 μM • DMAPP: 2 mM • Reaction: 37° C., 18 hours

[1] = Table 18, Conditions 13 and 14 (160 μM KgpF, 0° C., 20 hours), NSGGVS added to C terminal

Substance	MALDI-TOF-MS peak intensity, Number of additions 1 (KgpF)	MALDI-TOF-MS peak intensity, Number of additions 2 (KgpF)	MALDI-TOF-MS peak intensity, Number of additions 0 (KgpF)	Peak intensity, The number of prenyl groups added 0 (OltF v 2.1; Table 12)	Peak intensity, The number of prenyl groups added 1 (OltF v 2.1; Table 12)	further results
Clone-M1: artificial cyclic peptide containing a plurality of Trps ([dY]LRLNHTWSTWTSC; thioether (positions not given here); not fully specified (N-terminus, bridges); also: cyclic)	1	5	1			
Clone-M2: artificial cyclic peptide containing a plurality of Trps (Ac-[dY]SAWHGKDNYDWFC; thioether (positions not given here); not fully specified (bridges))	5	1	1			
Clone-M3: artificial cyclic peptide containing a plurality of Trps (Ac-[dY]SWSPAWVRQADIC; thioether (positions not given here); not fully specified (bridges))	1	4	1			
Clone-M4: artificial cyclic peptide containing a plurality of Trps (Ac-[dY]RVSNTWWQRHRWC; thioether (positions not given here); not fully specified (bridges))	4	1	1			MALDI-TOF-MS peak intensity, Number of additions 3 (KgpF): 1
Clone-M5: artificial cyclic peptide containing a plurality of Trps (Ac-[dY]LWSKNSQPWPESC; thioether (positions not given here); not fully specified (bridges))	5	1	3			
Clone-M6: artificial cyclic peptide containing a plurality of Trps (Ac-[dY]ILSQENHVWSLWC; thioether (positions not given here); not fully specified (bridges))	5	5	1			
Clone-M7: artificial cyclic peptide containing a plurality of Trps (Ac-[dY]LWVLRSDNTPWVC; thioether (positions not given here); not fully specified (bridges))	4	5	1			
Clone-M8: artificial cyclic peptide containing a plurality of Trps (Ac-[dY]THEWPWRTGWTRC; thioether (positions not given here); not fully specified (bridges))	1	5	1			MALDI-TOF-MS peak intensity, Number of additions 3 (KgpF): 1
Clone-M9: artificial cyclic peptide containing a plurality of Trps (Ac-[dY]SFHWGLAVWDHNC; thioether (positions not given here); not fully specified (bridges))	1	5	1			
DNT034 (Ac-[dY]NNRERGSDYFWLPPC; thioether (positions not given here); not fully specified (bridges))				1	5	
DNT057 (Ac-[dY]RQFNRRTHYFWLPDC; thioether (positions not given here); not fully specified (bridges))				1	5	
DNT061 (Ac-[dY]NNRERGSDFFWFFPC; thioether (positions not given here); not fully specified (bridges))				2	5	
DNT062 (Ac-[dY]NNRERGSDGGWGGPC; thioether (positions not given here); not fully specified (bridges))				3	5	
DNT063 (Ac-[dY]NNRERGSDYYWYYPC; thioether (positions not given here); not fully specified (bridges))				2	5	
DNT065 (Ac-[dY]NNRERGSDNNWNNPC; thioether (positions not given here); not fully specified (bridges))				3	5	
DNT066 (Ac-[dY]NNRERGSDVVWVVPC; thioether (positions not given here); not fully specified (bridges))				4	5	
DNT070 ({CH2CO}-[dY]ISWNEFNSYFWLPITC; thioether N-17 (inferred); not fully specified)				1	5	Peak intensity, The number of prenyl groups added 2 (OltF v 2.1; Table 12): 1
Met9: prenylated cyclic peptide identified by screening with MetAP1 as a target (Ac-[dY]KRKNCLVHVW(prenyl)HQCNSGGVS; thioether (positions not given here); not fully specified (C-terminus))						Peak intensity, The number of prenyl groups added 0 (KgpF; [1]): 1; Peak intensity, The number of prenyl groups added 1 (KgpF; [1]): 5
Met11: cyclic peptide SEQ ID NO: 363 identified by screening with MetAP1 as a target ({CH2CO}-[dY]HTDPFKAWHRRSCNSG; thioether N-14 (inferred); not fully specified)						Peak intensity, The number of prenyl groups added 0 (KgpF; [1]): 1; Peak intensity, The number of prenyl groups added 1 (KgpF; [1]): 5
Met12: prenylated cyclic peptide identified by screening with MetAP1 as a target ({CH2CO}-[dY]YIIW(prenyl)HRHRIMTVCNSGGVS; thioether N-14 (inferred); not fully specified (C-terminus); also: C-terminus linked to its mRNA (mRNA display))						Peak intensity, The number of prenyl groups added 0 (KgpF; [1]): 3; Peak intensity, The number of prenyl groups added 1 (KgpF; [1]): 4
Met13: cyclic peptide SEQ ID NO: 364 identified by screening with MetAP1 as a target ({CH2CO}-[dY]VTWKGPYRWRVCNSG; thioether N-13 (inferred); not fully specified)						Peak intensity, The number of prenyl groups added 0 (KgpF; [1]): 1; Peak intensity, The number of prenyl groups added 1 (KgpF; [1]): 5; Peak intensity, The number of prenyl groups added 2 (KgpF; [1]): 1
YG288 ({CH2CO}-[dY]SNFRIWRYSNSSC; thioether N-14 (inferred))						Peak intensity, The number of prenyl groups added 0 (OltF v 2.1; Table 11): 1; Peak intensity, The number of prenyl groups added 1 (OltF v 2.1; Table 11): 5
YG289 ({CH2CO}-[dY]HDYRIWRYHTYPC; thioether N-14 (inferred))						Peak intensity, The number of prenyl groups added 0 (OltF v 2.1; Table 11): 1; Peak intensity, The number of prenyl groups added 1 (OltF v 2.1; Table 11): 5

From patent publication US20220275534A1, “Peptide Library Production Method” (The University of Tokyo, priority 2018, published 2022)
